{"source": "patent US20250161422A1", "about": "“ARGINASE 2 VACCINE” (IO Biotech ApS, priority 2022, published 2025)", "key": {"[1]": {"tested_on": "PBMCs from healthy donors or cancer patients", "test": "In vitro peptide stimulation of PBMCs and IFNγ ELISPOT", "type": "cell-based, human", "details": "for IFNγ ELISPOT response, screening: PBMCs of five healthy HLA-A2+ donors, restimulated after 12-14 days; for IFNγ ELISPOT response, validation (repetition): healthy donors, repeat ELISPOT (FIG. 5); for IFNγ ELISPOT response in 17 HDs: 17 healthy donors of undetermined HLA-type", "procedure": "PBMCs from healthy donors or cancer patients were subjected to in vitro stimulation with ARG2-derived peptides by plating the cells with 10 μM peptide. The following day, the cells received low-dose IL-2 (120 U/ml) treatment. At 10-14 days after peptide stimulation, the cells were used for IFNγ ELISPOT. ELISPOT plates were coated with […] IFNγ capture antibody (MabTech) overnight. The next day, the plates were washed and blocked in X-vivo media followed by the plating of 2.5-3.5×10^5 PBMCs per well for ELISPOT, with and without restimulation with 5 μM peptide. A minimum of triplicate wells were set up pr. condition. The cells were incubated 14-16 hours before they were washed and a biotin-conjugated secondary antibody (Mabtech) was added, followed by a 2-hour incubation. Next, the cells were washed again, followed by incubation with streptavidin-conjugated alkaline phosphatase (Mabtech) for 1 hour. Finally, spots were developed by addition of BCIP/NBT substrate (Mabtech). Tap water was used to stop the reaction. Spots corresponding to IFNγ secretion were quantified by visualization on a CTL ImmunoSpot S6 Ultimate-V analyzer with ImmunoSpot software version 5.1. Peptide-specific IFNγ secreting cells were calculated by subtracting the average spot count in control wells from the average spot count in peptide-stimulated wells. […] Peptide pulsing was performed by incubating the target cells with 20 μM peptide for 1 hour, followed by two washes to remove unbound peptide. Effector cells with added peptide served as the positive control and […] plated without […] as the negative control. In ELISPOTs assays with immune cells as target cells, wells containing only effector cells were also included as controls. The average spot count from replicate wells was subtracted from the spot count of effector cells plated with the respective target cells. These 15 peptides ([…] to […]) were screened in peripheral blood mononuclear cells (PBMCs) from five healthy donors (HD), who were confirmed to be HLA-A2 positive (HLA-A2^+). PBMCs were stimulated with each peptide in vitro and restimulated in IFNγ ELISPOT after 12-14 days of culture."}, "[2]": {"tested_on": "PBMCs / peptide-specific T-cell cultures", "test": "Intracellular cytokine staining for TNFα and IFNγ", "type": "cell-based, human", "details": "for T-cell subset that responds (ICS for TNFα and IFNγ): peptide-stimulated healthy donor PBMCs", "procedure": "PBMCs were in vitro stimulated with peptide as described above. At 10-14 days post-simulation, the cells were used for intracellular cytokine staining. […] After a 4-hour incubation period, the cells were washed and stained for the extracellular markers CD3-APC/H7, CD4-FITC, and CD8-PerCP, and dead cells were stained with FVS-510. Next, the cells were permeabilized using Fixation/Permeabilization buffer (Invitrogen), followed by staining with IFNγ-APC and TNFα-BV421. Data were acquired using a BD Canto II flow cytometer and analyzed using FlowJo.\n(§1) ARG2-specific T-cell cultures were obtained by stimulation of PBMCs with ARG2-S05 peptide, followed by low-dose IL-2 (120 U/mL) the next day. At 12 days after peptide stimulation, the cells were re-stimulated with peptide, and IFNγ-secreting cells were isolated using magnetic beads. Next, these cells were expanded using a rapid expansion protocol, including feeder cells, CD3 antibody, and high-dose IL-2 (3000-6000 U/mL). On day 16-17, culture specificity was determined by stimulation with ARG2-S05 peptide and determination of the cytokine release by ICS.\nTo further characterize the ARG2-specific CD8^+ T cells, A2S05-specific T-cell cultures from four donors were established. Briefly, donor PBMCs were stimulated with A2S05 in vitro. 12 days later, peptide-specific T cells were re-stimulated and isolated using an IFNγ capture kit. IFNγ-producing cells were expanded using a rapid expansion protocol and the specificity was examined at 16-17 days after expansion by ICS for IFNγ and TNF."}, "[3]": {"tested_on": "splenocytes of vaccinated mice", "test": "Murine IFNγ ELISPOT on splenocytes", "type": "in vivo, C57BL/6 mice", "details": "splenocytes of ARG2-vaccinated Pan02 mice plated with ARG1 peptide", "procedure": "The purity of all synthesized peptides was >90%.\nMice were sacrificed at endpoint for tumor studies and one week after the last vaccination for the remaining studies. Spleens were harvested, smashed through a 70 μm filter, and red blood cells were lysed with Red Blood Cell Lysis Solution (Qiagen). 8×10^5 splenocytes were plated per well in IFNγ ELISPOT plates. IFNγ ELISPOT was performed as previously described. Tumors were harvested, cut into smaller pieces and enzymatically digested in RPMI medium containing 2.1 mg/ml collagenase type 1 (Worthington), 75 μg/ml DNase I (Worthington), 5 mM CaCl2, and 1% P/S. Cells were filtered through a 70 μm cell strainer and red blood cells were lysed as described above. CD45+tumor infiltrating lymphocytes (TILs) were isolated from tumor single-cell suspensions with CD45 microbeads (for MC38 and LL2 tumors) (Miltenyi Biotec) or with CD45 (TIL) microbeads (for B16-F10 tumors) (Miltenyi Biotec). The isolated CD45+ cells were rested overnight. 5×10^5 CD45+ cells were plated per well in IFNγ ELISPOT plates. For phenotyping ARG2 responses, CD8+ and CD4^+ T cells were isolated from the spleen of vaccinated mice with CD8a (Ly-2) and CD4 (L3T4) microbeads (Miltenyi Biotec), respectively, following manufacturer's instruction. Isolated T cells were rested overnight. […]"}, "[4]": {"tested_on": "splenocytes of vaccinated mice", "details": "previously identified by the inventors; cited from earlier work"}, "[5]": {"tested_on": "murine model of lung cancer", "details": "previously shown by the inventors; cited from earlier work"}, "[6]": {"tested_on": "HLA-A1+, HLA-C7+ or HLA-B8+ cancer cell lines (FM6, FM28, FM82, OCI-M2)", "test": "IFNγ ELISPOT of A2S05-specific T cells with peptide-pulsed cancer cell lines", "type": "cell-based, human", "details": "for IFNγ ELISPOT reactivity of A2S05-specific T cells to peptide-pulsed HLA-B8+ FM6: metastatic malignant melanoma cell line FM6", "procedure": "Peptide-specific IFNγ secreting cells were calculated by subtracting the average spot count in control wells from the average spot count in peptide-stimulated wells. ELISPOT assays with ARG2-specific T cells (effector cells) and various immune cells or cancer cells as target cells were set up by adding 3×10^4-5×10^4 effector cells to ELISPOT wells followed by 5×10^3-10^4 target cells. Peptide pulsing was performed by incubating the target cells with 20 μM peptide for 1 hour, followed by two washes to remove unbound peptide. Effector cells with added peptide served as the positive control and target cells plated without […] as the negative control. In ELISPOTs assays with immune cells as target cells, wells containing only effector cells were also included as controls. The average spot count from replicate wells was subtracted from the spot count of effector cells plated with the respective target cells.\nas §1\nFM6 was confirmed to be HLA-B8^+ by flow cytometry and confirmed to express ARG2 by RT-qPCR (FIG. 6)."}, "PBMCs": {"tested_on": "PBMCs", "test": "Ex vivo IFNγ ELISPOT", "type": "cell-based, human", "details": "donors with strong in vitro responses", "procedure": "PBMCs were thawed and rested overnight. The next day, 9×10^5 cells were plated pr. well. Control and peptide stimulations were performed in at least triplicate. The rest of the protocol was performed as described above."}}}
{"sequence": "GLLSALDLV (listed as Homo sapiens) [A2S14, human ARG2 positions 287-295]", "values": [{"measurement": "IFNγ ELISPOT response, screening", "setting": "[1]", "value": "significant responses in PBMCs from three or more donors"}, {"measurement": "IFNγ ELISPOT response, validation (repetition)", "setting": "[1]", "value": "strong IFNγ ELISPOT responses"}, {"measurement": "T-cell subset that responds (ICS for TNFα and IFNγ)", "setting": "[2]", "value": "reaction was from CD4^+ T cells"}]}
{"sequence": "ISAKDIVYI (listed as Mus musculus) [mARG1_169-177, murine ARG1 peptide from the corresponding region, control for specific recognition]", "values": [{"measurement": "cross-reactivity of vaccine-induced responses to ARG1 peptide", "setting": "[3]", "value": "no cross-reactivity"}]}
{"sequence": "LLSALDLVEV (listed as Homo sapiens) [A2S15, human ARG2 positions 288-297]", "values": [{"measurement": "IFNγ ELISPOT response, screening", "setting": "[1]", "value": "significant responses in PBMCs from three or more donors"}, {"measurement": "IFNγ ELISPOT response, validation (repetition)", "setting": "[1]", "value": "did not show significant responses"}]}
{"sequence": "LSPPNIVYI (listed as Mus musculus) [mARG2_188-196]", "values": [{"measurement": "T-cell responses upon a single vaccination", "setting": "[4]", "value": "strong and frequent T-cell responses"}, {"measurement": "tumor growth in murine model of lung cancer", "setting": "[5]", "value": "induced tumor growth delay"}]}
{"sequence": "NLIVNPRSV (listed as Homo sapiens) [A2S05, human ARG2 positions 84-92]", "values": [{"measurement": "IFNγ ELISPOT reactivity of A2S05-specific T cells to peptide-pulsed HLA-A1+ and HLA-C7+ cell lines", "setting": "[6]; T cells from HD78 and HD93", "value": "no reactivity"}, {"measurement": "IFNγ ELISPOT reactivity of A2S05-specific T cells to additional HLA-B8+ cell lines", "setting": "[6]; all four T-cell cultures, FM28, FM82, OCI-M2", "value": "reactivity against three additional HLA-B8^+ cell lines"}, {"measurement": "IFNγ ELISPOT reactivity of A2S05-specific T cells to peptide-pulsed HLA-B8+ FM6", "setting": "[6]", "value": "recognition and reactivity activity"}, {"measurement": "HLA restriction of the peptide", "setting": "[6]; recognition and cytolytic activity against HLA-B8+ lines", "value": "HLA-B8 restriction"}, {"measurement": "IFNγ ELISPOT response in 17 HDs", "setting": "[1]", "value": "only few responses"}, {"measurement": "donors with statistically significant IFNγ ELISPOT responses", "setting": "[1]; 38 donors with known HLA-A2 status (13 cancer patients, 25 healthy donors)", "value": "10 out of the 38"}, {"measurement": "IFNγ ELISPOT response, screening", "setting": "[1]", "value": "significant responses in PBMCs from three or more donors"}, {"measurement": "IFNγ ELISPOT response, validation (repetition)", "setting": "[1]", "value": "strong IFNγ ELISPOT responses"}, {"measurement": "HLA-A2 restriction from donor responses", "setting": "[1]; responses in both HLA-A2+ and HLA-A2- donors", "value": "not HLA-A2 restricted"}, {"measurement": "ex vivo IFNγ ELISPOT response", "setting": "PBMCs", "value": "strong and significant responses in PBMCs ex vivo"}, {"measurement": "specificity of expanded peptide-specific T-cell cultures (ICS for IFNγ and TNF)", "setting": "[2]; four donors, 16-17 days after expansion", "value": "Highly specific CD8+cultures from all four donors"}, {"measurement": "T-cell subset that responds (ICS for TNFα and IFNγ)", "setting": "[2]", "value": "responses were from CD8^+ T-cells"}]}
{"sequence": "QIVKNPRSV (listed as Homo sapiens) [ARG1_65-73, reference compound]", "values": [{"measurement": "IFNγ ELISPOT reactivity of A2S05-specific T cells to peptide-pulsed HLA-B8+ FM6", "setting": "[6]", "value": "lack of reactivity"}]}
{"sequence": "SLRGSLSRLLQTRVHSILKKSVHSVAVIGAPFS (listed as Homo sapiens) [A2L2, reference compound]", "values": [{"measurement": "IFNγ ELISPOT response in 17 HDs", "setting": "[1]", "value": "Strong and frequent responses"}]}
